Measurements from patent EP1420018A1, “Pyrido[1,2-a]benzimidazole derivatives useful in treating central nervous system disorders” (Ortho-McNeil Pharmaceutical, Inc., priority 1996, dated 1998).
Like-named read-outs stand apart in the source and are kept apart here. Each block holds one compound with its values, some of them ahead of it.

Experiments:
[1] = biological target: benzodiazepine site of the GABA-A receptor; assay: Benzodiazepine Receptor Binding Assay (inhibition of 3H-flunitrazepam binding); settings: read-out: GABAA Receptor Binding IC50
[2] = system: Anxiety in the Adult Male Rat; assay: Suppression of Anxiety in the Adult Male Rat (rat conflict test); assay type: in vivo, rats; settings: rat; for minimal effective dose: Rattus norvegicus
In short: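 Male rats, 48 h water- and 24 h food-deprived, trained with 200 unpunished licks, tested at expected peak drug activity. Every 20th lick punished by 0.2-s shock over a 3-min session; increase in median shocks versus concurrent vehicle assessed by one-tailed Mann-Whitney test (p<0.05), validated with a positive-control anxiolytic.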

[3] = system: metrazol-induced convulsions; assay: Suppression of Metrazol-Induced Convulsions in Adult Male Mice; assay type: in vivo; settings: mouse; for ED50: Mus musculus, po
[4] = system: metrazol-induced convulsions; assay: as above; assay type: in vivo; settings: mouse; for ED50: Mus musculus, ip
[5] = po, po, read-out: Rat Conflict (MED, mg/kg) po
[6] = ip, ip, read-out: Rat Conflict (MED, mg/kg) ip

SMILES: COCCN1C2=C(C(=O)Nc3ccccc3F)C(=O)CCN2c2ccc(Cl)cc21 [Compound 147]
IC50 [1]: 2.49 nM | minimal effective dose [2, 5]: > 10 mg/kg | ED50 [3]: ~5 mg/kg | ED50 [4]: < 1 mg/kg

SMILES: COCCN1C2=C(C(=O)Nc3ccccc3F)C(=O)CCN2c2ccc(C(F)(F)F)cc21 [Compound 148]
IC50 [1]: 1.98 nM | minimal effective dose [2, 5]: > 10 mg/kg | ED50 [3]: ~10 mg/kg | ED50 [4]: < 1 mg/kg

SMILES: CCOCCCN1C2=C(C(=O)Nc3ccccc3F)C(=O)CCN2c2ccc(F)cc21 [Compound 152]
IC50 [1]: 0.28 nM | minimal effective dose [2, 5]: 1 mg/kg | ED50 [3]: ~0.3 mg/kg | ED50 [4]: < 1 mg/kg

SMILES: CCOC(CCN1C2=C(C(=O)Nc3ccccc3F)C(=O)CCN2c2ccc(F)cc21)OCC [Compound 154]
IC50 [1]: 6.98 nM | minimal effective dose [2, 5]: 3 mg/kg | ED50 [3]: ~3 mg/kg | ED50 [4]: < 1 mg/kg

SMILES: COCCN1C2=C(C(=O)Nc3nccs3)C(=O)CCN2c2ccc(F)cc21 [Compound 155]
IC50 [1]: 6.13 nM | Rat Conflict (MED, mg/kg) po ([2]; po): 3 mg/kg | Mouse Metrazol (ED50, mg/kg) po [3]: ca. 1.5 mg/kg | Mouse Metrazol (ED50, mg/kg) ip [4]: <1 mg/kg

SMILES: COCCN1C2=C(C(=O)Nc3ccc(Cl)cc3)C(=O)CCN2c2ccccc21 [Compound 156]
IC50 [1]: 16 nM | minimal effective dose [2, 5]: 1 mg/kg | ED50 [3]: ~2 mg/kg | ED50 [4]: < 1 mg/kg

SMILES: CCOCN1C2=C(C(=O)Nc3ccccc3F)C(=O)CCN2c2ccc(Cl)cc21 [Compound 157]
IC50 [1]: 0.48 nM | minimal effective dose [2, 5]: > 10 mg/kg | ED50 [3]: ~2 mg/kg | ED50 [4]: < 1 mg/kg

The remaining compounds from weak to strong by IC50 [1], led by results:

IC50 [1]: 4.64 nM
SMILES: COCCN1C2=C(C(=O)Nc3c(F)cccc3F)C(=O)CCN2c2ccccc21 [Compound 151]
minimal effective dose [2, 5]: 10 mg/kg | ED50 [3]: ~2 mg/kg | ED50 [4]: < 1 mg/kg

IC50 [1]: 1.3 nM
SMILES: COCCN1C2=C(C(=O)Nc3ccccc3F)C(=O)CCN2c2ccccc21 [Compound 153]
minimal effective dose [2, 5]: ≤ 1 mg/kg | ED50 [3]: 1 mg/kg | ED50 [4]: < 1 mg/kg

IC50 [1]: 1.08 nM
SMILES: COCCN1C2=C(C(=O)Nc3ccccc3F)C(=O)CCN2c2ccc(F)c(F)c21 [Compound 149]
minimal effective dose [2, 5]: > 10 mg/kg | ED50 [3]: 3 mg/kg | ED50 [4]: < 1 mg/kg

IC50 [1]: 0.8 nM
SMILES: COCCOCN1C2=C(C(=O)Nc3ccccc3F)C(=O)CCN2c2ccc(F)cc21 [Compound 159]
minimal effective dose [2, 6]: < 10 mg/kg | minimal effective dose [2, 5]: 3 mg/kg | ED50 [3]: 0.1 mg/kg | ED50 [4]: 0.003 mg/kg

IC50 [1]: 0.61 nM
SMILES: COCCN1C2=C(C(=O)Nc3ccccc3F)C(=O)CCN2c2ccc(F)cc21 [Compound 163]
minimal effective dose [2, 6]: < 10 mg/kg | minimal effective dose [2, 5]: 0.1 mg/kg | ED50 [3]: 0.2 mg/kg | ED50 [4]: 0.01 mg/kg

IC50 [1]: 0.32 nM
SMILES: CC(C)OCCN1C2=C(C(=O)Nc3ccccc3F)C(=O)CCN2c2ccc(F)cc21 [Compound 150]
minimal effective dose [2, 5]: 10 mg/kg | ED50 [3]: 1 mg/kg | ED50 [4]: < 1 mg/kg

IC50 [1]: 0.15 nM
SMILES: COCN1C2=C(C(=O)Nc3ccccc3F)C(=O)CCN2c2ccc(F)cc21 [Compound 158]
minimal effective dose [2, 6]: < 10 mg/kg | minimal effective dose [2, 5]: 3 mg/kg | ED50 [3]: 0.1 mg/kg | ED50 [4]: 0.01 mg/kg
